Measured values reported in patent US12070483B2, “Compositions and methods for treatment of acute lung injury” (THE TRUSTEES OF THE UNIVERSITY OF PENNSYLVANIA, priority 2018, dated 2024).

What was measured:
[1] = tested on: C57Bl/6 mice, LPS-mediated lung injury; assay: Acute lung injury after intratracheal LPS (5 μg/g), lungs evaluated at 24 h; type: in vivo, mouse; settings: for lung injury, peptide administered along with LPS (0 time): evaluated at 24 hours after LPS; for lung injury, peptide administered at 12-16 hours after LPS: sacrifice @ 24 hours
Protocol: The IT model of acute lung injury (ALI) as shown in Table 9 was used to test the effects of PIP-2. […] IV administration of PIP-2 was used to avoid a second ‘assault’ on the trachea. Mice were sacrificed at 24 hours and lungs were evaluated for injury as described in Table 9. Protection (%) against lung injury was calculated as [1−(injury with PIP-2−control)/(LPS alone−control)]. Results are mean±SE for n=4. *P<0.01 vs control. ^†P<0.01 vs no PIP, 24 hours.
To study the effect of PIP-2 administration on lung injury, mice were treated with LPS (5 μg/g body weight) given IT. […] PIP-2 (2 μg/g body weight in liposomes) was administered at 0, 12, or 16 h after LPS. We have shown previously that this dose of PIP-2 can inhibit lung aiPLA2 activity by ˜90% for at least 24 h. PIP-2 was given IT at time zero and IV at 12 or 16 h in order to avoid excessive damage to the trachea. Animals were sacrificed and lungs were examined at 24 h after LPS. All indices of lung injury, reflecting lung inflammation, alveolar-capillary barrier dysfunction, lung fluid accumulation, and tissue oxidative stress, were elevated in LPS-treated mice as compared to control (p<0.05). […] Since lung injury was present in lungs at 12 and 16 h after LPS, the normal values at 24 h in lungs from LPS treated mice given PIP-2 at 12 or 16 h can only mean that lungs were able to recover fully from their injury during the 8 to 12 h interval between the administration of PIP-2 and examination of the lungs.

NOX2 = assay: ROS production (Amplex red) of isolated perfused mouse lung stimulated with angiotensin II; type: in vivo; settings: for ROS production by AngII-activated NOX2 in the isolated mouse lung: ex_vivo
Protocol: FIGS. 5A and 5B: PIP-2, incorporated within liposomes, was instilled intratracheally prior to lung isolation. FIG. 5A: Isolated lungs were perfused in a recirculating system with artificial medium. NOX2 activity was stimulated by addition of angiotensin II (Ang II). Amplex red along with horseradish peroxidase were added to the perfusate for detection of ROS production. Aliquots of perfusate were analyzed at intervals by spectrophotometry to determine oxidation of amplex red, indicating ROS production. Results are mean±SE for N=3-4. FIG. 5B: Mice were sacrificed at 6, 12, or 24 h after LPS administration ([…]) and lungs were perfused in situ for 15 min with saline solution containing a fluorophore (difluorofluorescein diacetate, DFFDA). Lungs then were homogenized and fluorescence of the lung homogenate was determined as an index of ROS production. Results for FIG. 5A & FIG. 5B are mean±SE for N=4. *P<0.05 vs corresponding LPS and LPS+PIP-2; § P<0.05 vs 12 h and 24 h LPS; ΔP<0.05 vs corresponding LPS.
FIG. 8: PLA2 inhibitory peptide (PIP-2) inhibits ROS production stimulated by angiotensin II (Ang II) in isolated perfused mouse lung. PIP-2 (2 μg/g body weight) was administered to intact wild type (WT) mice by the IV route. […] After 30 mins, lungs were isolated from anesthesized mice and perfused in a recirculating system with added Ang II ([…]) as a Nox2 activator and Amplex red plus horseradish peroxidase to detect perfusate ROS. WT basal lungs were not stimulated with Ang II. After a 15 min equilibration period (called zero time), aliquots were taken at 15 min intervals for analysis of fluorescence. Each plotted point represents the mean±SE for n=3. The lines were drawn by the least mean squares method. The mean rates of ROS […] calculated from the slope of each line are indicated in parentheses. *P<0.05 vs the other 3 slopes.
FIG. 10: Effect of liposome composition on delivery of PIP-2 to lungs after IV administration. […]
The effect of the PIPs on ROS production in control (untreated) lungs was determined in vitro with isolated perfused lungs. […] The basal rate of ROS production was evaluated with WT lungs that were perfused in the absence of AngII. […] Aliquots of perfusate were taken at 15 min intervals and analyzed by fluorescence for resorufin (λexcitation 568 nm, λemission 581 nm), the product of Amplex red oxidation. The rate of Amplex red oxidation was calculated and expressed as arbitrary fluorescence units (AFU) with normalization to mouse body wt. There was a low rate of Amplex red oxidation in the absence of HRP in the perfusate (˜7% of the AngII-stimulated fluorescence), indicating a non-ROS-mediated oxidation of the fluorophore; this value was subtracted to obtain the reported values.

[2] = LPS 5 μg/g IT, PIP-2 2 μg/g IV @12 hr, sacrifice at 24 hrs
[3] = LPS 5 μg/g IT, PIP-2 2 μg/g IV @16 h, sacrifice at 24 hrs
[4] = Control: PIP in liposomes IT, no LPS
[5] = Control: PIP in liposomes, no LPS
[6] = LPS 5 μg/g IT, PIP-4 2 μg/g IV @12 hr, sacrifice at 24 hrs
[7] = LPS 5 μg/g IT, PIP-4 2 μg/g IV @16 h, sacrifice at 24 hrs

Sequence: LHDFRHQIL (Inhibitory peptide.) [PIP-2]
- # of cells ([1]; LPS 5 μg/g IT, PIP-2 2 μg/g IT @0 hrs, sacrifice at 24 hrs, control 0.95, LPS 8.67): 0.92 ± 0.02 ×10^4/g wt
- Wet/Dry lung weight ratio ([1]; LPS 5 μg/g IT, PIP-2 2 μg/g IT @0 hrs, sacrifice at 24 hrs, control 5.59, LPS 8.10): 5.50 ± 0.04
- Protein carbonyls ([1]; LPS 5 μg/g IT, PIP-2 2 μg/g IT @0 hrs, sacrifice at 24 hrs, control 5.6, LPS 16.9): 5.4 ± 0.1 nmol/mg prot
- 8-Isoprostanes ([1]; LPS 5 μg/g IT, PIP-2 2 μg/g IT @0 hrs, sacrifice at 24 hrs, control 34, LPS 101): 31 ± 2 pmol/mg prot
- protein ([1]; LPS 5 μg/g IT, PIP-2 2 μg/g IT @0 hrs, sacrifice at 24 hrs, control 75, LPS 164): 71 mg protein/g wt
- TBARS ([1]; LPS 5 μg/g IT, PIP-2 2 μg/g IT @0 hrs, sacrifice at 24 hrs, control 75, LPS 381): 70 ± 2.1 pmol/mg prot.
- 8-Isoprostanes [1, 2]: 38 ± 1 pmol/mg prot
- # of cells [1, 2]: 1.45 ± 0.03 ×10^4/g wt
- Protein carbonyls [1, 2]: 6.4 ± 0.2 nmol/mg prot
- TBARS [1, 2]: 85 ± 5.2 pmol/mg prot.
- Wet/Dry lung weight ratio [1, 2]: 5.95 ± 0.02
- protein [1, 2]: 84 ± 1.2 mg protein/g wt
- 8-Isoprostanes [1, 3]: 40 ± 1 pmol/mg prot
- # of cells [1, 3]: 1.43 ± 0.2 ×10^4/g wt
- Protein carbonyls [1, 3]: 6.4 ± 0.3 nmol/mg prot
- TBARS [1, 3]: 89 ± 9.3 pmol/mg prot.
- Wet/Dry lung weight ratio [1, 3]: 6.19 ± 0.06
- protein [1, 3]: 82.0 ± 1.2 mg protein/g wt
- protection against lung injury ([1]; PIP-2 at 12 or 16 hours after LPS, evaluated at 24 hours): 85-95%
- lung injury, peptide administered along with LPS (0 time) [1]: completely prevented lung injury
- protection against lung injury ([1]; evaluated at 24 hr after IT LPS, PIP-2 at 0, 12 or 16 h after LPS): > 75%
- lung injury, peptide administered at 12-16 hours after LPS [1]: prevents further injury
- inhibition of ROS production (NOX2; PIP-2 2 μg/g in liposomes IV, WT lungs, Ang II 50 μM): ~75%
- ROS production by AngII-activated NOX2 in the isolated mouse lung (NOX2): inhibit ROS production

Sequence: LYEIKHQIL (Inhibitory peptide.) [PIP-4]
- 8-Isoprostanes [1, 4]: 34 ± 1 pmol/mg prot
- Protein carbonyls [1, 4]: 5.8 ± 0.2 nmol/mg prot
- TBARS [1, 4]: 76 ± 2 pmol/mg prot.
- # of cells [1, 5]: 0.96 ± 0.03 ×10^4/g wt
- Wet/Dry lung weight ratio [1, 5]: 5.59 ± 0.02
- protein [1, 5]: 78 ± 2 μg protein/g wt
- Wet/Dry lung weight ratio ([1]; LPS 5 μg/g IT, PIP-4 2 μg/g IT @0 hrs, sacrifice at 24 hrs, LPS alone 7.40): 6.1 ± 0.01
- # of cells ([1]; LPS 5 μg/g IT, PIP-4 2 μg/g IT @0 hrs, sacrifice at 24 hrs, LPS alone 8.5): 0.95 ± 0.02 ×10^4/g wt
- Protein carbonyls ([1]; LPS 5 μg/g IT, PIP-4 2 μg/g IT @0 hrs, sacrifice at 24 hrs, LPS alone 16.9): 5.9 ± 0.3 nmol/mg prot
- 8-Isoprostanes ([1]; LPS 5 μg/g IT, PIP-4 2 μg/g IT @0 hrs, sacrifice at 24 hrs, LPS alone printed 1.02 ± 3): 32 ± 2 pmol/mg prot
- # of cells [1, 6]: 1.46 ± 0.25 ×10^4/g wt
- Protein carbonyls [1, 6]: 6.4 ± 0.1 nmol/mg prot
- protein [1, 6]: 85 ± 2 μg protein/g wt
- # of cells [1, 7]: 1.44 ± 0.12 ×10^4/g wt
- Protein carbonyls [1, 7]: 6.4 ± 0.1 nmol/mg prot
- TBARS [1, 7]: 85 ± 2 pmol/mg prot.
- Wet/Dry lung weight ratio [1, 7]: 6.12 ± 0.09
- protein [1, 7]: 83 ± 1 μg protein/g wt
- lung injury, peptide administered along with LPS (0 time) [1]: prevents lung injury
- lung injury, peptide administered at 12-16 hours after LPS [1]: prevents further injury
- ROS production by AngII-activated NOX2 in the isolated mouse lung (NOX2): inhibit ROS production
